Test results as given in patent publication US20210177803A1, “NEW PHARMACEUTICAL USE FOR THE TREATMENT OF HEART FAILURE” (Novartis AG, priority 2018, published 2021).
Like-named read-outs stand apart in the source and are kept apart here.

Key:
[1] = test system: patients hospitalized for acute HFrEF
Procedure: (§1) The starting dose and all subsequent doses were selected to optimize the highest tolerated dose based on a systolic blood pressure (SBP) algorithm.
(§2) Inclusion Criteria: • Patients ≥18 y of age with the capacity to provide written informed consent. • Currently hospitalized for a primary diagnosis of HF, including symptoms and signs of fluid overload. • Eligible patients will be randomized no earlier than 24 hours and up to ten days after presentation while still hospitalized as long as meet the following definition of stable status: • SBP≥100 mm Hg for the preceding 6 hours prior to randomization; no symptomatic hypotension • No increase (intensification) in i.v. diuretic dose within last 6 hours prior to randomization • No i.v. inotropic drugs for 24 hours prior to randomization • No i.v. vasodilators including nitrates within last 6 hours prior to randomization • Left ventricular EF 40% within the past 6 m (including current hospitalization) using echocardiography, multi gated acquisition scan (MUGA), CT scanning, MRI or ventricular angiography, provided no subsequent study documented an EF of >40% • Elevated NT-proBNP≥1600 pg/mL OR BNP≥400 pg/mL during current hospitalization.

[2] = test system: patients with HFrEF following hemodynamic stabilization after an episode of ADHF; details: for Proportion of patients achieving the target dose of 200 mg LCZ696 b.i.d.: 10 weeks after randomization; for Odds ratio (OR) for up-titration success to 200 mg b.i.d.: multivariate logistic regression
Text: The study design comprises three Epochs (phases): the Screening Epoch; the Treatment Epoch defined as 10 weeks after Randomization; and 16-week Follow-up Epoch. Patients were stratified into three groups based on their pre-admission treatment status: (a) receiving an angiotensin-converting enzyme inhibitor (ACEI), (b) receiving an angiotensin receptor blocker (ARB), or (c) ACEI/ARB-naïve patients.
The study population consists of patients hospitalized for an episode of acute decompensation of heart failure who are diagnosed with CHF NYHA class II-to-IV and reduced ejection fraction (LVEF 40%). Patients can be either with first presentation (de novo), or acute decompensation of HF due to deterioration in patients with a prior history of (chronic) HF.
Inclusion Criteria: • 1. Patients hospitalized due to acute decompensated HF episode (ADHF) as primary diagnosis) and consistent Signs and Symptoms. • 2. Diagnosis of HF New York Heart Association class II-to-IV and reduced ejection fraction: Left ventricular ejection fraction 40% at Screening. • 3. […] Stabilized (while in the hospital) for at least 24 h leading to Randomization defined as: • No need for IV diuretics in the past 24 h prior to signing ICF • Systolic blood pressure (SBP) 110 mm Hg for at least 6 h prior to Randomization • 5. Meeting one of the following criteria: • Patients on any dose of ACEI or ARB at screening • ACEI/ARB naïve patients and patients not on ACEI or ARB for at least 4 weeks before screening.
The basis for up-titration toward the target dose was taking into consideration tolerability (i.e., incidence of hypotension, renal or hepatic impairment and hyperkalemia) based on clinical evaluation and laboratory assessment.

[3] = test system: urinary cGMP; details: compared with enalapril, 1 week
Procedure: (§3) Circulating high-sensitivity cardiac troponin (hsTn) and soluble ST2 (sST2) reflect myocardial stress in patients with heart failure (HF). Production of cyclic guanosine 3′5′ monophosphate (cGMP) in response to activation of natriuretic peptide receptors reduces cardiac afterload and preload.
(§4) Ratios of geometric means (timepoint/baseline) were determined and compared as a ratio for sacubitril/valsartan vs. enalapril.

[4] = test system: high-sensitivity cardiac troponin (hsTnT); details: compared with enalapril, 4 weeks
Procedure: as §3, §4

[5] = test system: patients hospitalized for acute HFrEF; test: PIONEER-HF study: clinical outcomes; type: in vivo, human
Procedure: The study rational and design is described in by Velazquez E J, et al. .in Am.
as §1, §2

[6] = target: neprilysin (Homo sapiens, UniProt P08473); details: 200 mg LCZ696 b.i.d.; cited from earlier work
[7] = 8 weeks, LCZ696 n = 440, enalapril n = 441
[8] = compared with enalapril, 8-week study period

Sequence of neprilysin (P08473 whole entry): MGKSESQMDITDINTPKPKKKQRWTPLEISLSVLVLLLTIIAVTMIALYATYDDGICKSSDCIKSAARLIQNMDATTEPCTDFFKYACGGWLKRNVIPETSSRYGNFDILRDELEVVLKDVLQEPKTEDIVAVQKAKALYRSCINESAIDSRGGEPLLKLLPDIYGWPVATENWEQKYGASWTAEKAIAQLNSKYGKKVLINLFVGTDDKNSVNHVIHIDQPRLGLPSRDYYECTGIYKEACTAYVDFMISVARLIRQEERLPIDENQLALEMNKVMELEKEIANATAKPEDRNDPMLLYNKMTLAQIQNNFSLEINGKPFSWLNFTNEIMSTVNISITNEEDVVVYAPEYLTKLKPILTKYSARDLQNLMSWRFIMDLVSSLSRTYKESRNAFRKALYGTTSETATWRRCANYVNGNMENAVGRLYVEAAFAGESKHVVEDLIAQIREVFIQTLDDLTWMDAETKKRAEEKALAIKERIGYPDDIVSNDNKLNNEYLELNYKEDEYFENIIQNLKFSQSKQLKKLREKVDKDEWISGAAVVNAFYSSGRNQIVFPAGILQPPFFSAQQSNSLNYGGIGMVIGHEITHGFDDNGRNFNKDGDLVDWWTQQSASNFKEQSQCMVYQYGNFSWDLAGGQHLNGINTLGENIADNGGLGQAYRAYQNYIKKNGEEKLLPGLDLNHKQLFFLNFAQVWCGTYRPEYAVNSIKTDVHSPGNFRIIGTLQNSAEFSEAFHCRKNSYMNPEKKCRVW

SMILES: CCCCC(=O)N(Cc1ccc(-c2ccccc2-c2nn[n-]n2)cc1)[C@H](C(=O)[O-])C(C)C.CCOC(=O)[C@H](C)C[C@@H](Cc1ccc(-c2ccccc2)cc1)NC(=O)CCC(=O)[O-].[Na+].[Na+].[Na+] [LCZ696, trisodium [3((1S,3R)-1-biphenyl-4-ylmethyl-3-ethoxycarbonyl-1-butylcarbamoyl) propionate-(S)-3′-methyl-2′-(pentanoyl{2″-(tetrazol-5-ylate)biphenyl-4′-ylmethyl}amino)butyrate]hemipentahydrate]
- Hyperkalemia ([1]; 8 weeks): 11.6%
- Symptomatic hypotension ([1]; 8 weeks): 10.0%
- Worsening renal function ([1]; 8 weeks): 13.6%
- Angioedema, HR ([1]; LCZ696 vs. Enalapril): 0.17
- Hyperkalemia, HR ([1]; LCZ696 vs. Enalapril): 1.25
- Symptomatic hypotension, HR ([1]; LCZ696 vs. Enalapril): 1.10
- Worsening renal function, HR ([1]; LCZ696 vs. Enalapril): 0.93
- Angioedema in patients who identified as black (in words) [1]: no angioedema
- Angioedema in patients who identified as black (in words) ([1]; listed as sacubitril-valsartan): no cases
- Angioedema events (number in words) ([1]; blinded adjudication): one
- Angioedema ([1]; blinded adjudication, 8 weeks): 0.2%
- Patients in whom the maximum target dose had been achieved ([1]; by the week 8 study visit): 56%
- Study drug prematurely discontinued prior to 8 weeks ([1]; excluding discontinuation due to death): 19.6%
- Tolerability (in words) ([1]; initiated after initial stabilization after an ADHF episode): well tolerated
- Relative RR, primary endpoint (target dose 200 mg b.i.d.) ([2]; ACEI or ARB strata compared to naive): 1.01
- Patients who achieved the target dose ([2]; ACEI/ARB naïve patients): 48.3%
- RRR, achieved target dose ([2]; ACEI/ARB naïve vs prior ACEI/ARB use): 1.008
- Patients who achieved and maintained any dose of LCZ696 for at least 2 weeks leading to week 10 ([2]; both groups): More than 86%
- Subjects maintained on any dose at week 10 ([2]; both groups (ACEI/ARB naïve and not naïve)): 88%
- Patients able to achieve and maintain any dose at week 10 ([2]; de novo HF patients): 90%
- Patients who achieved the target dose ([2]; de novo HF patients): 56.0%
- RRR, achieved target dose ([2]; de novo HF vs prior HF diagnosis): 1.30
- Feasibility and tolerability of early initiation (in words) ([2]; in-hospital or shortly after discharge): feasible and overall well tolerated
- Proportion of patients achieving the target dose of 200 mg LCZ696 b.i.d. ([2]; post-discharge arm): 50.4%
- Patients who achieved and maintained any dose of LCZ696 for at least 2 weeks leading to week 10 ([2]; post-discharge initiation): 88.8%
- Patients who achieved and maintained either 100 mg b.i.d. or 200 mg b.i.d. for at least 2 weeks leading to week 10 ([2]; post-discharge initiation): 68%
- RRR, achieved and maintained 100 mg or 200 mg b.i.d. ([2]; pre- vs post-discharge): 0.919
- RRR, achieved and maintained any dose ([2]; pre- vs post-discharge): 0.973
- Relative risk ratio (RRR), achieving target dose 200 mg b.i.d. ([2]; pre- vs post-discharge, 10 weeks): 0.893
- Proportion of patients achieving the target dose of 200 mg LCZ696 b.i.d. ([2]; pre-discharge arm): 45.0%
- Patients who achieved and maintained any dose of LCZ696 for at least 2 weeks leading to week 10 ([2]; pre-discharge initiation): 86.4%
- Patients who achieved and maintained either 100 mg b.i.d. or 200 mg b.i.d. for at least 2 weeks leading to week 10 ([2]; pre-discharge initiation): 62.5%
- Odds ratio (OR) for up-titration success to 200 mg b.i.d. ([2]; predictor: assignment to pre- or post-discharge initiation): 1.21
- Odds ratio (OR) for up-titration success to 200 mg b.i.d. ([2]; predictor: prior use of an ACEI or ARB): 1.04
- Patients who achieved the target dose ([2]; subjects with a prior HF diagnosis): 44.8%
- Patients who achieved the target dose ([2]; subjects with prior ACEI/ARB use): 47.9%
- Serial urinary cGMP (in words) [3]: increased
- Greater reduction in hsTnT [4]: 16%
- Additional HF drug [5, 7]: 75 (17.0) number (%)
- Composite (death, rehospitalization for HF, LVAD implantation, or listing for cardiac transplant) [5, 7]: 41 (9.3) number (%)
- Death [5, 7]: 10 (2.3) number (%)
- Expanded composite (composite plus unplanned outpatient visits requiring IV diuretics, or increase >50% in diuretic dose) [5, 7]: 262 (59.5) number (%)
- HF rehospitalization [5, 7]: 35 (8.0) number (%)
- Increase in diuretic dose >50% [5, 7]: 242 (55.0) number (%)
- LVAD implantation [5, 7]: 1 (0.2) number (%)
- Listing for cardiac transplant [5, 7]: 0 (0.0) number (%)
- Unplanned outpatient visits requiring intravenous diuretics [5, 7]: 2 (0.5) number (%)
- Additional HF drug, HR (95% CI) ([5]; LCZ696 vs. Enalapril): 0.89 (0.65, 1.22)
- Death, HR (95% CI) ([5]; LCZ696 vs. Enalapril): 0.66 (0.30, 1.48)
- Expanded composite, HR (95% CI) ([5]; LCZ696 vs. Enalapril): 0.409
- HF rehospitalization, HR (95% CI) ([5]; LCZ696 vs. Enalapril): 0.56 (0.37, 0.84)
- Increase in diuretic dose >50%, HR (95% CI) ([5]; LCZ696 vs. Enalapril): 0.84 (0.84, 1.21)
- LVAD implantation, HR (95% CI) ([5]; LCZ696 vs. Enalapril): 0.99 (0.06, 15.97)
- Unplanned outpatient visits requiring intravenous diuretics, HR (95% CI) ([5]; LCZ696 vs. Enalapril): 1.00 (0.14, 7.07)
- Absolute risk reduction, clinical composite [5, 8]: 7.5%
- Relative risk reduction, clinical composite [5, 8]: 44.6%
- Share of maximal neprilysin inhibition delivered [6]: approximately 90%
